Measured values from patent US6737383B1, “Herbicidal oxadiazolidines” (priority 1999, dated 2004).

Columns and labels:
[1] = test system: bedstraw; assay: Test B pre/postemergence bedstraw; assay type: in vivo, Galium aparine
Outline: (§1)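 Response is a visual 0-to-10 score relative to untreated plants, where 0 means no effect and 10 means complete control, taken twelve to sixteen days after application. Treatments went onto soil at planting and onto foliage of 1- to 4-leaf plants, using a surfactant-containing non-phytotoxic solvent.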

[2] = test system: blackgrass; assay: Test B pre/postemergence blackgrass; assay type: in vivo, Alopecurus myosuroides
Outline: as §1

[3] = test system: surinam grass; assay: Test B pre/postemergence surinam grass; assay type: in vivo, Brachiaria decumbens
Outline: as §1

[4] = test system: cocklebur; assay: Test B pre/postemergence cocklebur; assay type: in vivo, Xanthium strumarium
Outline: as §1

[5] = test system: corn; assay: Test B pre/postemergence corn; assay type: in vivo, Zea mays
Outline: as §1

[6] = test system: crabgrass; assay: Test B pre/postemergence crabgrass; assay type: in vivo, Digitaria sanguinalis
Outline: as §1

[7] = test system: giant foxtail; assay: Test B pre/postemergence giant foxtail; assay type: in vivo, Setaria faberii
Outline: as §1

[8] = test system: morningglory; assay: Test B pre/postemergence morningglory; assay type: in vivo, Ipomoea hederacea
Outline: as §1

[9] = test system: pigweed; assay: Test B pre/postemergence pigweed; assay type: in vivo, Amaranthus retroflexus
Outline: as §1

[10] = test system: rape; assay: Test B pre/postemergence rape; assay type: in vivo, Brassica napus
Outline: as §1

[11] = test system: soybean; assay: Test B pre/postemergence soybean; assay type: in vivo, Glycine max
Outline: as §1

[12] = test system: sugar beet; assay: Test B pre/postemergence sugar beet; assay type: in vivo, Beta vulgaris
Outline: as §1

[13] = test system: velvetleaf; assay: Test B pre/postemergence velvetleaf; assay type: in vivo, Abutilon theophrasti
Outline: as §1

[14] = test system: wheat; assay: Test B pre/postemergence wheat; assay type: in vivo, Triticum aestivum
Outline: as §1

[15] = test system: wild oat; assay: Test B pre/postemergence wild oat; assay type: in vivo, Avena fatua
Outline: as §1

[16] = test system: purple nutsedge; assay: Test B pre/postemergence purple nutsedge; assay type: in vivo, Cyperus rotundus
Outline: as §1

[17] = Preemergence, Rate 62 g/ha, scale of 0 to 10 where 0 is no effect and 10 is complete control
[18] = Preemergence, Rate 250 g/ha, scale of 0 to 10 where 0 is no effect and 10 is complete control
[19] = Preemergence, Rate 500 g/ha, scale of 0 to 10 where 0 is no effect and 10 is complete control
[20] = Rate 62 g/ha, Postemergence, scale of 0 to 10 where 0 is no effect and 10 is complete control
[21] = Rate 125 g/ha, Postemergence, scale 0 to 10
[22] = Rate 125 g/ha, Preemergence, scale of 0 to 10 where 0 is no effect and 10 is complete control
[23] = Rate 500 g/ha, Postemergence, scale 0 to 10, 0 no effect, 10 complete control

Q: What does the source list for `CC(C)=CCCC(C)=CCn1c(=O)on(C(=O)N(c2ccc(F)cc2)C(C)C)c1=O` [Compound 262]?
A: Bedstraw plant response rating [1, 17]: 0; Bedstraw plant response rating [1, 18]: 0; Plant response rating, Bedstraw [1, 19]: 0; Bedstraw plant response rating [1, 20]: 0; Bedstraw plant response rating [1, 21]: 0; Bedstraw plant response rating [1, 22]: 0; Blackgrass plant response rating [2, 17]: 0; Blackgrass plant response rating [2, 18]: 2; Plant response rating, Blackgrass [2, 19]: 4; Blackgrass plant response rating [2, 20]: 0; Blackgrass plant response rating [2, 21]: 0; Blackgrass plant response rating [2, 22]: 0; Plant response rating (0 to 10; 0 is no effect, 10 is complete control), Blackgrass ([2]; Rate 250 g/ha, Postemergence): 0; Blackgrass plant response rating [2, 23]: 0; B. signalgrass plant response rating [3, 17]: 0; B. signalgrass plant response rating [3, 18]: 0; Plant response rating, B. signalgrass [3, 19]: 0; B. signalgrass plant response rating [3, 20]: 0; B. signalgrass plant response rating ([3]; Rate 125 g/ha, Postemergence, scale 0 (no effect) to 10 (complete control)): 0; B. signalgrass plant response rating [3, 22]: 0; Plant response rating (0 to 10; 0 is no effect, 10 is complete control), B. signalgrass ([3]; Rate 250 g/ha, Postemergence): 0; B. signalgrass plant response rating [3, 23]: 0; Cocklebur plant response rating [4, 17]: 0; Cocklebur plant response rating [4, 18]: 0; Plant response rating, Cocklebur [4, 19]: 0; Cocklebur plant response rating [4, 20]: 0; Cocklebur plant response rating [4, 21]: 0; Cocklebur plant response rating [4, 22]: 0; Plant response rating (0 to 10; 0 is no effect, 10 is complete control), Cocklebur ([4]; Rate 250 g/ha, Postemergence): 0; Cocklebur plant response rating [4, 23]: 0; Corn plant response rating [5, 17]: 0; Corn plant response rating [5, 18]: 0; Plant response rating, Corn [5, 19]: 0; Corn plant response rating [5, 20]: 0; Corn plant response rating [5, 21]: 0; Corn plant response rating [5, 22]: 0; Plant response rating (0 to 10; 0 is no effect, 10 is complete control), Corn ([5]; Rate 250 g/ha, Postemergence): 0; Corn plant response rating [5, 23]: 0; Crabgrass plant response rating [6, 17]: 0; Crabgrass plant response rating [6, 18]: 2; Plant response rating, Crabgrass [6, 19]: 3; Crabgrass plant response rating [6, 22]: 2; Plant response rating (0 to 10; 0 is no effect, 10 is complete control), Crabgrass ([6]; Rate 250 g/ha, Postemergence): 0; Crabgrass plant response rating [6, 23]: 0; Giant foxtail plant response rating [7, 17]: 0; Plant response rating, Giant foxtail [7, 19]: 7; Giant foxtail plant response rating [7, 22]: 3; Plant response rating (0 to 10; 0 is no effect, 10 is complete control), Giant foxtail ([7]; Rate 250 g/ha, Postemergence): 0; Giant foxtail plant response rating [7, 23]: 0; Morningglory plant response rating [8, 17]: 0; Morningglory plant response rating [8, 18]: 0; Plant response rating, Morningglory [8, 19]: 0; Morningglory plant response rating [8, 22]: 0; Plant response rating (0 to 10; 0 is no effect, 10 is complete control), Morningglory ([8]; Rate 250 g/ha, Postemergence): 5; Morningglory plant response rating [8, 23]: 7; Redroot pigweed plant response rating [9, 17]: 0; Redroot pigweed plant response rating [9, 18]: 0; Plant response rating, Redroot pigweed [9, 19]: 0; Redroot pigweed plant response rating [9, 22]: 0; Plant response rating (0 to 10; 0 is no effect, 10 is complete control), Redroot pigweed ([9]; Rate 250 g/ha, Postemergence): 3; Redroot pigweed plant response rating [9, 23]: 4; Rape plant response rating [10, 17]: 0; Rape plant response rating [10, 18]: 0; Plant response rating, Rape [10, 19]: 0; Rape plant response rating [10, 22]: 0; Plant response rating (0 to 10; 0 is no effect, 10 is complete control), Rape ([10]; Rate 250 g/ha, Postemergence): 0; Rape plant response rating [10, 23]: 0; Soybean plant response rating [11, 17]: 0; Soybean plant response rating [11, 18]: 0; Plant response rating, Soybean [11, 19]: 0; Soybean plant response rating [11, 22]: 0; Soybean plant response rating [11, 23]: 4; Sugarbeets plant response rating [12, 17]: 0; Sugarbeets plant response rating [12, 18]: 0; Plant response rating, Sugarbeets [12, 19]: 0; Sugarbeets plant response rating [12, 22]: 0; Sugarbeets plant response rating [12, 23]: 0; Velvetleaf plant response rating [13, 17]: 0; Velvetleaf plant response rating [13, 18]: 0; Plant response rating, Velvetleaf [13, 19]: 0; Velvetleaf plant response rating [13, 22]: 0; Velvetleaf plant response rating [13, 23]: 2; Wheat plant response rating [14, 17]: 0; Wheat plant response rating [14, 18]: 0; Plant response rating, Wheat [14, 19]: 0; Wheat plant response rating [14, 22]: 0; Wheat plant response rating [14, 23]: 0; Wild oats plant response rating [15, 17]: 0; Wild oats plant response rating [15, 18]: 0; Plant response rating, Wild oats [15, 19]: 0; Wild oats plant response rating [15, 22]: 0; Wild oats plant response rating [15, 23]: 0; Nutsedge plant response rating [16, 17]: 0; Nutsedge plant response rating [16, 18]: 0; Plant response rating, Nutsedge [16, 19]: 0; Nutsedge plant response rating [16, 22]: 0; Plant response rating (0 to 10; 0 is no effect, 10 is complete control), Nutsedge ([16]; Rate 250 g/ha, Postemergence): 0; Nutsedge plant response rating [16, 23]: 0
